The target of one data set is T1, hLAT1 (Homo sapiens, UniProt Q01650).
T1 construct: host or cells: LLC-PK1 (tetracycline-inducible, Invitrogen Gateway pT-REx System)
As to the kind of experiment: Substrate transport inhibition, [3H]-gabapentin uptake in LLC-PK1 cells expressing hLAT1. In kind it is cell-based. As for the experimental part: (§1) Substrate transport inhibition studies were conducted with LLC-PK1 cells inducibly expressing either hLAT1 or hLAT2. Cells were plated in growth media with 1 μg/mL doxycycline at 30,000 cells/well in 96-well plates. Sixteen hours after plating, cells were treated with butyrate at a final concentration of 5 mM. The following day, cells were washed with PBS and incubated in the presence or absence of various concentrations of QBS10072S with 30,000 cpm/well of either [3H]-gabapentin (LAT1) or [3H]-leucine (LAT2) in PBS for 15 minutes at room temperature. The non-specific cell-bound activity was determined by the addition of 5 mM unlabeled gabapentin (LAT1) or leucine (LAT2). Unincorporated radioactivity was removed, and cells were washed three times with ice-cold PBS. Cells were lysed by adding scintillation fluid to each well, and cell-associated radioactivity was determined via scintillation counting using a multichannel 96-well plate reader (MicroBeta Trilux, Perkin Elmer, Waltham, MA). Data were expressed as the percent of specific radioactivity uptake in wells with no compound added. LC50s were determined by non-linear curve-fitting using GraphPad Prism (San Diego, CA).

The next data set concerns the target T2, hLAT2 (Homo sapiens, UniProt Q9UHI5).
T2 construct: host or cells: LLC-PK1 (tetracycline-inducible, Invitrogen Gateway pT-REx System)
T2 sequence (Q9UHI5 1-535): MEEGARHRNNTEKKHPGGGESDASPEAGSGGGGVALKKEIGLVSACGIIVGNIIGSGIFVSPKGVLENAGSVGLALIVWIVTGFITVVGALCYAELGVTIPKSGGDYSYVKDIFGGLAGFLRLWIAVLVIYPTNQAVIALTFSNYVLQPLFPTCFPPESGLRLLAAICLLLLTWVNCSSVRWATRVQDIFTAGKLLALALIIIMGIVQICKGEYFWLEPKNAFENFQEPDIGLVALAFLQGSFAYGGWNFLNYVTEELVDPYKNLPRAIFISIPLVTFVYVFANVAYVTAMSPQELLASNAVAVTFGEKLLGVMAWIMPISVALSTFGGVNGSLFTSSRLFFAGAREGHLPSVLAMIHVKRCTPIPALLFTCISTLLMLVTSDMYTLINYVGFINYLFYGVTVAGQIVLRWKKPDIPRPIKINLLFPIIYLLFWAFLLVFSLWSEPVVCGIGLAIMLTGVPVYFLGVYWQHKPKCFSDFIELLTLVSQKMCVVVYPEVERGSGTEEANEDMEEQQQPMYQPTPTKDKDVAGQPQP
T2 sequence (P08195 1-529 partner): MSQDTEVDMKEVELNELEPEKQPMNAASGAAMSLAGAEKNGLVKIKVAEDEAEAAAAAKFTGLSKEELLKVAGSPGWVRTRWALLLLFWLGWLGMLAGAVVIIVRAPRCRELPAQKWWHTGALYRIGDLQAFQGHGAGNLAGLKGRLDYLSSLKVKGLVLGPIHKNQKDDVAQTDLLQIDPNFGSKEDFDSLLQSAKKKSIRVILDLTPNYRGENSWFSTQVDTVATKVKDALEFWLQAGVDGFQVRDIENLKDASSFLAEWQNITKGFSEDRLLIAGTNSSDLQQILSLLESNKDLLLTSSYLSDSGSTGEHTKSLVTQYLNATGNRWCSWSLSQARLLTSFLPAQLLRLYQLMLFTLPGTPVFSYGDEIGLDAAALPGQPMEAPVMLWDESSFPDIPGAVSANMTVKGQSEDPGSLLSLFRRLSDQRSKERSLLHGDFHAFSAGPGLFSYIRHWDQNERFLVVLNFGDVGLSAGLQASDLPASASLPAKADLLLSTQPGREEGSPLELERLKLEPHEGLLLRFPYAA
As to the kind of experiment: Substrate transport inhibition, [3H]-leucine uptake in LLC-PK1 cells expressing hLAT2. In kind it is cell-based. As for the experimental part:
as §1

The nature of data set [1]: Cytotoxicity in normal human astrocytes (CellTiter-Glo). In kind it is cell-based. Conditions: normal human astrocytes (NHA), read-out: LC50.
The test system of a further data set is U87 cells. Description: WST1 cell viability assay, U87. In kind it is cell-based. Conditions: Homo sapiens, U-87 MG; U87; QBS10072S 1 hour in PBS, TMZ 2 days, read day 7; read-out: LC50 (μM ± SD). As for the experimental part: (§2) In vitro activities of QBS10072S and temozolomide (TMZ) in U87 and U87-MGMT cells were assessed using the WST1 cell viability assay in 96-well plates in which 500/well of cells were plated in sextuplets for each condition. To avoid cell loss, the following washing and medium removing procedures were all done using a P200 pipet without vacuum aspiration. For QBS10072S treatment, cells were washed with PBS the next day and incubated with 50 μL of various concentrations of QBS10072S in PBS for 1 hour at 37°C. After incubation, 150 μL of growth medium was added to each well. The medium was subsequently changed every two days until day 7. For TMZ treatment, cells were treated with 100 μL of various concentrations of TMZ in a growth medium for 2 days. After incubation, cells were put back in a normal growth medium and continued culturing for five days. In the end, 10 μL of WST1 reagent was added to each well and incubated at 37°C for 4h before subjecting to plate reading at 450 nm and 690nm using an EnSpire multimode plate reader (PerkinElmer). Background (OD690nm) was subtracted and data were normalized to the control. LC50s were determined by non-linear regression using GraphPad Prism (GraphPad Software Inc., San Diego, California)
(Tetrazolium dyes change colour on reduction, which living cells bring about.)

For the next data set, the system named is U87-MGMT cells. Description: WST1 cell viability assay, U87-MGMT. It is filed as cell-based. Conditions: Homo sapiens; U87-MGMT; QBS10072S 1 hour in PBS, TMZ 2 days, read day 7; read-out: LC50 (μM ± SD). As for the experimental part:
as §2

The test system of data set [2] is U251 intracerebral human GBM xenograft. Description: U251 intracerebral human GBM xenograft in athymic mice (BLI, survival). It is filed as in vivo, mouse. To be noted: temozolomide 4 mg/kg oral gavage daily for 5 days plus RT 1.5 Gy daily for 5 days; vehicle 35. As for the experimental part: Five-week-old female athymic mice (nu/nu, homozygous: Simonsen Laboratories, Gilroy, CA), housed under aseptic conditions, received intracranial tumor cell injection as previously described and as approved by the University of California San Francisco Institutional Animal Care and Use Committee, Protocol #: AN111064-03. Briefly, mice were anesthetized by intraperitoneal injection of ketamine (100 mg/kg) and xylazine (10 mg/kg) and injected with 3 μL of tumor cell suspension (300,000 cells total) into the right caudate-putamen. Coordinates: 3 mm to the right from bregma, on top of the coronal suture, and 3.5 mm depth. Injection rate: ~30 second/uL. For treatment studies, eight mice were used for each group for LN229 studies and nine mice per group for U251 studies. Treatments began when tumors entered the log-phase of growth as measured by luminescence, for the LN229 experiment on Day 21 and for U251 experiments on Day 14.
Dosing levels and frequency are described in the figure legends.
For bioluminescence imaging (BLI), mice were anesthetized as above, then administered 150 mg/kg of luciferin (D-luciferin potassium salt, Gold Biotechnology, St. Louis, MO) via intraperitoneal injection. Ten minutes after luciferin injection, mice were examined for tumor bioluminescence with an IVIS Lumina imaging station and Living Image software (Caliper Life Sciences, Alameda, CA), and regions of interest were recorded as photons per second per steradian per square cm.
Mice were anesthetized via inhalation of 2.5% isoflurane with 1 L of oxygen per minute for five minutes prior to being positioned on an irradiation platform located 16.3 cm from a cesium-137 source (JL Shepherd & Associates, San Fernando, CA). Eyes, respiratory tracts, and bodies were protected with lead shielding. Mice received whole-brain irradiation at a dose rate of 247 cGy/min until 1.5 Gy radiation had been administered. After irradiation, animals were monitored until recovery. Mice were irradiated once daily for five consecutive days. All mice received the first radiation dose when tumors were in a log-phase growth (Day 14) as determined by BLI.
Tumor-bearing mice were treated with temozolomide (TMZ) 4 mg/kg via oral gavage, starting on day 14 post U251 cell injection once daily for five days - concurrent therapy with RT. TMZ was obtained from the UCSF hospital pharmacy and formulated with the Ora-Plus suspending vehicle (Perrigo, Dublin, Ireland) with a working concentration of 1 mg/mL.

The structures appear in SMILES notation.

Usually IC50 stands for the concentration at which inhibition is half-maximal. Lower therefore signals greater potency in that assay.

T1 sequence (Q01650 whole entry, one chain of several): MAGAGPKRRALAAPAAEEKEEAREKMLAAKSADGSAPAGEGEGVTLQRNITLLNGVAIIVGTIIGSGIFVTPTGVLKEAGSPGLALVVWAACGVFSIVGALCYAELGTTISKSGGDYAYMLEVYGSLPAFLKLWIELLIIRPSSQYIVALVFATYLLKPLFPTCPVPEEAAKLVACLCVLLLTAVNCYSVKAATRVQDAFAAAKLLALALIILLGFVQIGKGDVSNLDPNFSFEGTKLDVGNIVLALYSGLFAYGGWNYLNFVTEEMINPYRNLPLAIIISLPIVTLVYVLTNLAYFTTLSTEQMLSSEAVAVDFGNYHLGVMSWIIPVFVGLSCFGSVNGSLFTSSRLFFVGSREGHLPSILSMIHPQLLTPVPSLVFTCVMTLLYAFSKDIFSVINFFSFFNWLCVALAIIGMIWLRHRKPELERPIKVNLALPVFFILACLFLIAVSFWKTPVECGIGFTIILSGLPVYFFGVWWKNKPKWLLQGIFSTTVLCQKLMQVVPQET

Regarding `N[C@@H](Cc1ccc(N(CCCl)CCCl)cc1)C(=O)O` [Melphalan, melphalan, reference compound], the concentration for half-maximal inhibition (IC50) against hLAT1 came to 170 µM; against hLAT2 it was 390 µM. The CC50 at 30 min in data set [1] came out at 0.86 µM.

In the case of `Cn1nnc2c(C(N)=O)ncn2c1=O` [TMZ, temozolomide, reference compound], the CC50 in the data set on U87 cells is 82.3 ± 10.5 µM; in the data set on U87-MGMT cells, greater than 200 µM. In addition, the median survival time in data set [2] came to 48 days.
